Results as given in patent US7105510B2, “Non-nucleoside reverse transcriptase inhibitors” (Boehringer Ingelheim (Canada) Ltd., priority 2002, dated 2006).

What was measured:
HIV-1 RT K103N/Y181C = target: T1, HIV-1 RT K103N/Y181C (Human immunodeficiency virus type 1 group M subtype B, UniProt P03366, K702N/Y780C); test: Reverse Transcriptase (RT) assay, double mutant K103N/Y181C; type: biochemical
T1 construct: mutations that occur in the reverse transcriptase segment of the pol gene
From the text: (§1) Based upon testing of these compounds, as described below, it is known that they inhibit the RNA-dependent DNA polymerase activity of HIV-1 RT. Utilizing the Reverse Transcriptase (RT) Assay described below, compounds can be tested for their ability to inhibit the RNA-dependent DNA polymerase activity of HIV-1 RT. Certain specific compounds described in the Examples which appear below, were so tested. The results of this testing appear in Table 2 as IC50 (nM) and EC50 (nM).
(§2) Reverse Transcriptase (RT) and Cell-Based Assays
(§3) The assays are as described in WO 01/96338A1, the contents of which are hereby incorporated herein.

[1] = test system: HIV-1 K103N/Y181C (103/181); test: Cell-based assay, 103/181 double mutant; settings: Human immunodeficiency virus 1, read-out: EC50 103/181
From the text: as §2, §3

HIV-1 WT = test: Cell-based assay, wild type; settings: Human immunodeficiency virus 1
From the text: as §2, §3

HIV-1 RT WT = target: T2, HIV-1 RT WT (Human immunodeficiency virus type 1 group M subtype B, UniProt P03366); test: Reverse Transcriptase (RT) assay, wild type; type: biochemical
T2 construct: mutations that occur in the reverse transcriptase segment of the pol gene
From the text: as §1, §2, §3

CCN1c2ncc(CCOc3cccc4c3CN(O)C4=O)cc2C(=O)N(C)c2cccnc21 [Entry 103, 5,11-Dihydro-8-{2-{(2,3-dihydro-2-hydroxy-1-oxo-1H-isoindol-4-yl)oxy}ethyl}-11-ethyl-5-methyl-6H-dipyrido[3,2-b:2′,3′-e][1,4]diazepin-6-one]
IC50 (HIV-1 RT K103N/Y181C): > 0.1 µM
EC50 [1]: 0.01 to 0.05 µM
EC50 (HIV-1 WT): < 0.01 µM
IC50 (HIV-1 RT WT): 0.05 to 0.1 µM

CCN1c2ncc(CCOc3ccc4[nH]c(=O)[nH]c4c3)cc2C(=O)N(C)c2cccnc21 [Entry 122, 5,11-Dihydro-8-{2-{(2,3-dihydro-2-oxo-1H-benzimidazol-5-yl)oxy}ethyl}-11-ethyl-5-methyl-6H-dipyrido[3,2-b:2′,3′-e][1,4]diazepin-6-one]
IC50 (HIV-1 RT K103N/Y181C): > 0.1 µM
IC50 (HIV-1 RT WT): 0.05 to 0.1 µM

CCN1c2ncc(CCOc3cccc4c3CCNC4=O)cc2C(=O)Nc2c(C)ccnc21 [Entry 109]
IC50 (HIV-1 RT K103N/Y181C): > 0.1 µM
IC50 (HIV-1 RT WT): < 0.05 µM

CCN1c2ncc(CCOc3cccc4c3CN(C)C(=O)N4C)cc2C(=O)Nc2c(C)ccnc21 [Entry 115]
IC50 (HIV-1 RT K103N/Y181C): > 0.1 µM
IC50 (HIV-1 RT WT): < 0.05 µM

CCN1c2ncc(CCOc3cccc4c3CN(C)C(=O)N4C)cc2C(=O)N(C)c2cccnc21 [Entry 112]
IC50 (HIV-1 RT K103N/Y181C): > 0.1 µM
EC50 [1]: 0.01 to 0.05 µM
EC50 (HIV-1 WT): < 0.01 µM
IC50 (HIV-1 RT WT): < 0.05 µM

CCN1c2ncc(CCOc3cccc4c3CN(Cc3ccncc3)C4=O)cc2C(=O)N(C)c2cccnc21 [Entry 104, 5,11-dihydro-8-{2-{{2,3-dihydro-1-oxo-2-(4-pyridinylmethyl)-1H-isoindol-4-yl}oxy}ethyl}-11-ethyl-5-methyl-6H-dipyrido[3,2-b:2′,3′-e][1,4]diazepin-6-one]
IC50 (HIV-1 RT K103N/Y181C): 0.05 to 0.1 µM
IC50 (HIV-1 RT WT): < 0.05 µM

CCN1c2ncc(CCOc3ccc4c(c3)CN(C)C(=O)N4C)cc2C(=O)N(C)c2cccnc21 [Entry 120]
IC50 (HIV-1 RT K103N/Y181C): > 0.1 µM
IC50 (HIV-1 RT WT): < 0.05 µM

CCN1c2ncc(CCOc3cccc4c3C(C)C(=O)N4C)cc2C(=O)N(C)c2cccnc21 (stereo not drawn) [Entry 106, 5,11-dihydro-8-{2-{(2,3-dihydro-1,3-dimethyl-2-oxo-1H-indol-4-yl)oxy}ethyl}-11-ethyl-5-methyl-6H-dipyrido[3,2-b:2′,3′-e][1,4]diazepin-6-one]
IC50 (HIV-1 RT K103N/Y181C): > 0.1 µM
IC50 (HIV-1 RT WT): 0.05 to 0.1 µM

CCN1c2ncc(CCOc3cccc4c3CNC(=O)N4C)cc2C(=O)Nc2c(C)ccnc21 [Entry 116]
IC50 (HIV-1 RT K103N/Y181C): > 0.1 µM
IC50 (HIV-1 RT WT): < 0.05 µM

CCN1c2ncc(CCOc3cccc4c3CNC(=O)N4)cc2C(=O)N(C)c2cccnc21 [Entry 110, 5,11-Dihydro-11-ethyl-5-methyl-8-{2-{(1,2,3,4-tetrahydro-2-oxo-5-quinazolinyl)oxy}ethyl}-6H-dipyrido[3,2-b:2′,3′-e][1,4]diazepin-6-one]
IC50 (HIV-1 RT K103N/Y181C): > 0.1 µM
EC50 [1]: < 0.01 µM
EC50 (HIV-1 WT): < 0.01 µM
IC50 (HIV-1 RT WT): < 0.05 µM

CCN1c2ncc(CCOc3cccc4c3CNC(=O)N4)cc2C(=O)Nc2c(C)ccnc21 [Entry 111]
IC50 (HIV-1 RT K103N/Y181C): > 0.1 µM
EC50 [1]: 0.01 to 0.05 µM
EC50 (HIV-1 WT): < 0.01 µM
IC50 (HIV-1 RT WT): < 0.05 µM

CCN1c2ncc(CCOc3ccc4c(c3)CNC(=O)N4)cc2C(=O)N(C)c2cccnc21 [Entry 121]
IC50 (HIV-1 RT K103N/Y181C): > 0.1 µM
IC50 (HIV-1 RT WT): 0.05 to 0.1 µM

CCN1c2ncc(CCOc3cccc4c3CNC4=O)cc2C(=O)Nc2c(C)ccnc21 [Entry 102]
IC50 (HIV-1 RT K103N/Y181C): > 0.1 µM
EC50 [1]: < 0.01 µM
EC50 (HIV-1 WT): < 0.01 µM
IC50 (HIV-1 RT WT): < 0.05 µM

CCN1c2ncc(CCOc3cccc4c3n(C)c(=O)n4C)cc2C(=O)N(C)c2cccnc21 [Entry 131]
IC50 (HIV-1 RT K103N/Y181C): > 0.1 µM
IC50 (HIV-1 RT WT): 0.05 to 0.1 µM

CCN1c2ncc(CCOc3cccc4c3COC(=O)N4)cc2C(=O)Nc2c(C)ccnc21 [Entry 127]
IC50 (HIV-1 RT K103N/Y181C): > 0.1 µM
IC50 (HIV-1 RT WT): < 0.05 µM

CCN1c2ncc(CCOc3cccc4c3CNC(=O)N4CC(=O)O)cc2C(=O)N(C)c2cccnc21 [Entry 118]
IC50 (HIV-1 RT K103N/Y181C): > 0.1 µM
EC50 [1]: > 0.05 µM
EC50 (HIV-1 WT): > 0.05 µM
IC50 (HIV-1 RT WT): < 0.05 µM

CCN1c2ncc(CCOc3cccc4[nH]c(=O)n(C)c34)cc2C(=O)N(C)c2cccnc21 [Entry 132]
IC50 (HIV-1 RT K103N/Y181C): > 0.1 µM
IC50 (HIV-1 RT WT): 0.05 to 0.1 µM

CCN1c2ncc(CCOc3cccc4c3CNC4=O)cc2C(=O)N(C)c2cccnc21 [Entry 101, 5,11-Dihydro-8-{2-{(2,3-dihydro-1-oxo-1H-isoindol-4-yl)oxy}ethyl}-11-ethyl-5-methyl-6H-dipyrido[3,2-b:2′,3′-e][1,4]diazepin-6-one]
IC50 (HIV-1 RT K103N/Y181C): > 0.1 µM
EC50 [1]: < 0.01 µM
EC50 (HIV-1 WT): < 0.01 µM
IC50 (HIV-1 RT WT): < 0.05 µM

Cc1ccnc2c1NC(=O)c1cc(CCOc3cccc4c3CNC(=O)N4)cnc1N2C1CC1 [Entry 114]
IC50 (HIV-1 RT K103N/Y181C): > 0.1 µM
IC50 (HIV-1 RT WT): < 0.05 µM

CCN1c2ncc(CCOc3cccc4c3COC(=O)N4CC(=O)O)cc2C(=O)N(C)c2cccnc21 [Entry 128, 5-[2-(6,11-dihydro-11-ethyl-5-methyl-6-oxo-5H-dipyrido[3,2-b:2′,3′-e][1,4]diazepin-8-yl)ethoxy]-2-oxo-2H-3,1-benzoxazine-1(4H)-acetic acid]
IC50 (HIV-1 RT K103N/Y181C): > 0.1 µM
IC50 (HIV-1 RT WT): 0.05 to 0.1 µM

CCN1c2ncc(CCOc3cccc4c3C(C)(C)OC(=O)N4)cc2C(=O)N(C)c2cccnc21 [Entry 125, 5,11-Dihydro-8-{2-{(1,4-dihydro-4,4-dimethyl-2-oxo-2H-3,1-benzoxazin-5-yl)oxy}ethyl}-11-ethyl-5-methyl-6H-dipyrido[3,2-b:2′,3′-e][1,4]diazepin-6-one]
IC50 (HIV-1 RT K103N/Y181C): > 0.1 µM
IC50 (HIV-1 RT WT): 0.05 to 0.1 µM

CCN1c2ncc(CCOc3ccc4on(C)c(=O)c4c3)cc2C(=O)Nc2c(C)cc(F)nc21 [Entry 130]
IC50 (HIV-1 RT K103N/Y181C): > 0.1 µM
IC50 (HIV-1 RT WT): < 0.05 µM

CCN1c2ncc(CCOc3cccc4c3CCNC4=O)cc2C(=O)N(C)c2cccnc21 [Entry 108]
IC50 (HIV-1 RT K103N/Y181C): 0.05 to 0.1 µM
IC50 (HIV-1 RT WT): < 0.05 µM

CCN1c2ncc(CCOc3ccc4on(C(C)(C)C)c(=O)c4c3)cc2C(=O)Nc2c(C)cc(F)nc21 [Entry 129, 5,11-Dihydro-8-{2-{{2,3-dihydro-2-(1,1-dimethylethyl)-3-oxo-1,2-benzisoxazol-5-yl}oxy}ethyl}-2-fluoro-11-ethyl-4-methyl-6H-dipyrido[3,2-b:2′,3′-e][1,4]diazepin-6-one]
IC50 (HIV-1 RT K103N/Y181C): > 0.1 µM
IC50 (HIV-1 RT WT): 0.05 to 0.1 µM

CCN1c2ncc(CCOc3cccc4c3CC(=O)N4C)cc2C(=O)N(C)c2cccnc21 [Entry 107, 5,11-dihydro-8-{2-{(2,3-dihydro-1-methyl-2-oxo-1H-indol-4-yl)oxy}ethyl}-11-ethyl-5-methyl-6H-dipyrido[3,2-b:2′,3′-e][1,4]diazepin-6-one]
IC50 (HIV-1 RT WT): 0.05 to 0.1 µM

CCN1c2ncc(CCOc3cccc4c3CNC(=O)N4C)cc2C(=O)N(C)c2cccnc21 [Entry 113]
IC50 (HIV-1 RT K103N/Y181C): < 0.05 µM
EC50 [1]: < 0.01 µM
EC50 (HIV-1 WT): < 0.01 µM
IC50 (HIV-1 RT WT): < 0.05 µM

CCN1c2ncc(CCOc3cccc4c3CC(=O)N4)cc2C(=O)N(C)c2cccnc21 [Entry 105, 5,11-Dihydro-8-{2-{(2,3-dihydro-2-oxo-1H-indol-4-yl)oxy}ethyl}-11-ethyl-5-methyl-6H-dipyrido[3,2-b:2′,3′-e][1,4]diazepin-6-one]
IC50 (HIV-1 RT K103N/Y181C): > 0.1 µM
IC50 (HIV-1 RT WT): 0.05 to 0.1 µM

CCN1c2ncc(CCOc3cccc4c3COC(=O)N4)cc2C(=O)N(C)c2cccnc21 [Entry 126, 5,11-Dihydro-8-{2-{(1,4-dihydro-2-oxo-2H-3,1-benzoxazin-5-yl)oxy}ethyl}-11-ethyl-5-methyl-6H-dipyrido[3,2-b:2′,3′-e][1,4]diazepin-6-one]
IC50 (HIV-1 RT K103N/Y181C): > 0.1 µM
IC50 (HIV-1 RT WT): < 0.05 µM

CCN1c2ncc(CCOc3cccc4c3CNC(=O)C4)cc2C(=O)N(C)c2cccnc21 [Entry 123, 5,11-Dihydro-11-ethyl-5-methyl-8-{2-{(1,2,3,4-tetrahydro-3-oxo-8-isoquinolinyl)oxy}ethyl}-6H-dipyrido[3,2-b:2′,3′-e][1,4]diazepin-6-one]
IC50 (HIV-1 RT K103N/Y181C): < 0.05 µM
IC50 (HIV-1 RT WT): < 0.05 µM

CCN1c2ncc(CCOc3ccc4c(c3)CNC(=O)N4C)cc2C(=O)N(C)c2cccnc21 [Entry 119]
IC50 (HIV-1 RT K103N/Y181C): > 0.1 µM
IC50 (HIV-1 RT WT): < 0.05 µM

CCN1c2ncc(CCOc3ccc4c(c3)COC(=O)N4)cc2C(=O)N(C)c2cccnc21 [Entry 133]
IC50 (HIV-1 RT K103N/Y181C): > 0.1 µM
IC50 (HIV-1 RT WT): < 0.05 µM

CCN1c2ncc(CCOc3cccc4c3CNC(=O)O4)cc2C(=O)N(C)c2cccnc21 [Entry 124, 5,11-Dihydro-8-{2-{(3,4-dihydro-2-oxo-2H-1,3-benzoxazin-5-yl)oxy}ethyl}-11-ethyl-5-methyl-6H-dipyrido[3,2-b:2′,3′-e][1,4]diazepin-6-one]
IC50 (HIV-1 RT K103N/Y181C): < 0.05 µM
IC50 (HIV-1 RT WT): < 0.05 µM

CCN1C(=O)c2cc(CCOc3cccc4c3CNC(=O)N4)cnc2N(CC)c2ncccc21 [Entry 117]
IC50 (HIV-1 RT K103N/Y181C): > 0.1 µM
IC50 (HIV-1 RT WT): < 0.05 µM
